{
  "source": "patent US12459919B2",
  "about": "“Polymorphic forms of (R)-4-(1-((3-(difluoromethyl)-1-methyl-1H-pyrazol-4-yl)sulfonyl)-1- fluoroethyl)-N-(isoxazol-3-yl)piperidine-1-carboxamide” (MyoKardia, Inc., priority 2019, dated 2025)",
  "key": {"[1]": {"test_system": "adult rat ventricular myocytes", "assay": "Cardiomyocyte contractility assay (fractional shortening, IonOptix)", "type": "cell-based", "conditions": "5 minutes perfusion, 1 Hz pacing", "method": "Contractility of adult rat ventricular myocytes is determined by edge detection with an IonOptix contractility system. Aliquots of myocytes in Tyrode buffer (137 mM NaCl, 3.7 mM KCl, 0.5 mM MgCl2, 1.5 mM CaCl2, 4 mM HEPES, 11 mM glucose) are placed in a perfusion chamber (Series 20 RC-27NE; Warner Instruments), allowed to adhere to the coverslip, and then perfused with 37° C. Tyrode buffer. Myocytes are filed stimulated at 1 Hz and 10V. Only myocytes with clear striations, quiescent prior to pacing, with a cell length of 120-180 microns, a basal fractional shortening equal to 3-8% of the cell length, and a contraction velocity greater than 100 microns per second are used for contractility experiments. To determine the response to compounds, myocytes are first perfused for 60 seconds with Tyrodes buffer followed by 5 minutes of compound and a 140 second washout with Tyrodes buffer. Data is continuously recorded using IonOptix software. Contractility data is analyzed using Ionwizard software (IonOptix). For each cell, 10-20 contractility transients were averaged and compared under basal (no compound) and compound-treated conditions. Compound activity is measured by effects on fractional shortening (FS), where fractional shortening is the ratio of the peak length of the cell at contraction divided by the basal cell length normalized to 100% for an untreated cell."}, "[2]": {"assay": "DVS isotherm (hygroscopicity)", "type": "physicochemical"}, "bovine cardiac myosin": {"biological_target": "bovine cardiac myosin (Bos taurus, UniProt Q9BE39)", "sequence (Q9BE39 whole entry)": "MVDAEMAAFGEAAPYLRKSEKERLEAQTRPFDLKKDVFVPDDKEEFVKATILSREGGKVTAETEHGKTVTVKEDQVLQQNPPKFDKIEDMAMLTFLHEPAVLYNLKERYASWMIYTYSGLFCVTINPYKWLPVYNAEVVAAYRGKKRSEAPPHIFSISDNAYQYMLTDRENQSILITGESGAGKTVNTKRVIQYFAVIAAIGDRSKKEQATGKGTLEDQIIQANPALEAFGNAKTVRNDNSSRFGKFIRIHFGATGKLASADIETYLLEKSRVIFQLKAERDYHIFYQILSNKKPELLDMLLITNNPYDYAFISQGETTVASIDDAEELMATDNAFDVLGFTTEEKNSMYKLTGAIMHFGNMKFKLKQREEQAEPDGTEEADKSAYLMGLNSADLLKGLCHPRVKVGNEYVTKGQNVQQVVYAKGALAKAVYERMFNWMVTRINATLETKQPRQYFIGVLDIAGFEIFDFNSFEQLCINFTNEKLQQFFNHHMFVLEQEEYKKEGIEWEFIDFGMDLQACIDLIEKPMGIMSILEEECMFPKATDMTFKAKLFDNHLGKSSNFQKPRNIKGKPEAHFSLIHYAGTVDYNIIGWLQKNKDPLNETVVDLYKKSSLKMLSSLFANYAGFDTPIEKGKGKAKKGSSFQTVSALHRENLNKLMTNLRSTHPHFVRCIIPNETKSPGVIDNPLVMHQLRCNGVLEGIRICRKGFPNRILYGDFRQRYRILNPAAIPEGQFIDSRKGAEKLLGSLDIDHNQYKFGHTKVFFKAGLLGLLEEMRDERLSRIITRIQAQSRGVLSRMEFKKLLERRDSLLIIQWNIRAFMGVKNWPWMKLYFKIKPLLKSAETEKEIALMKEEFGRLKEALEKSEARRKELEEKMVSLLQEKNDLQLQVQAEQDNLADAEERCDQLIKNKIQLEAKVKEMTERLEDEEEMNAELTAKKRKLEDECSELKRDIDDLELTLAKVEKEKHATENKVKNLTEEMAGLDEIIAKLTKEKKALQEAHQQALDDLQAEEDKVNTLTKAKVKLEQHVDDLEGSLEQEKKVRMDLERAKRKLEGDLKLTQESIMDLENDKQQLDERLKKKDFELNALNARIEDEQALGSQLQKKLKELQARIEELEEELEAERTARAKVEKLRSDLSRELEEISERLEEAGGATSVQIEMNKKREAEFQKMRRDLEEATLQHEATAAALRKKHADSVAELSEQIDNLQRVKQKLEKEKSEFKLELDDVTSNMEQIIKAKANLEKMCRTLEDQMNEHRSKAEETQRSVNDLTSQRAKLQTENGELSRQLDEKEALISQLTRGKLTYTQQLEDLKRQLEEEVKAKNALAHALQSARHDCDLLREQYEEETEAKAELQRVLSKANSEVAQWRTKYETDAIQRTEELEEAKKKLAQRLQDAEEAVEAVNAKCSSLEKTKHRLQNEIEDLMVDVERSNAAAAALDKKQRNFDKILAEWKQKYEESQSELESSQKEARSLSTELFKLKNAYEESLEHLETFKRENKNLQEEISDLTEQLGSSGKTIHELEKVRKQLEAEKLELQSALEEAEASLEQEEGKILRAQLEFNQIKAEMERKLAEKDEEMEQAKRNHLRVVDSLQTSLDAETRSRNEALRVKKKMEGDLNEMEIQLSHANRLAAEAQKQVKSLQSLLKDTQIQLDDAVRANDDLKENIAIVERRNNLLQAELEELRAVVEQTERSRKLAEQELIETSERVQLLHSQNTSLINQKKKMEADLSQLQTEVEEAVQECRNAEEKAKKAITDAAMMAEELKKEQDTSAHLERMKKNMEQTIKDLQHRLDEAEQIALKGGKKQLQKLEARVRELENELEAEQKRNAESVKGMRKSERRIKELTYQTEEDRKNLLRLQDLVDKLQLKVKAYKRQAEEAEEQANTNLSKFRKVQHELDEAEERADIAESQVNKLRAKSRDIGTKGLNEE", "sequence (P85100 whole entry partner)": "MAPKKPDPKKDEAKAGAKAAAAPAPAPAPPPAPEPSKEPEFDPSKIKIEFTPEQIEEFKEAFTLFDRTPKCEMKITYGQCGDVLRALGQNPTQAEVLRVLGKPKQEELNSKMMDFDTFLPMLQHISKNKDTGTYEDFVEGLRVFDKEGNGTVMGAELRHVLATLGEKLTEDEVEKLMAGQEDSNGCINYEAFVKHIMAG", "sequence (Q3SZE5 whole entry partner)": "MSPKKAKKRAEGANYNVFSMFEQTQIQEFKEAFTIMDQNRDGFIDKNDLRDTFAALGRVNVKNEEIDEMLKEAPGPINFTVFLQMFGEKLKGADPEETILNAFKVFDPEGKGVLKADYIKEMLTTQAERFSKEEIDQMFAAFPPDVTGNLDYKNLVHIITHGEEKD", "assay": "Myosin activation assay (PK/LDH-coupled ATPase, skinned myofibrils)", "type": "biochemical", "conditions": "concentration at which total response is increased by twenty percent", "method": "Small molecule agents were assessed for their ability to activate the enzymatic activity of bovine cardiac myosin using a biochemical assay that couples the release of ADP (adenosine diphosphate) from cardiac myosin to an enzymatic coupling system consisting of pyruvate kinase and lactate dehydrogenase (PK/LDH) and monitoring the absorbance decrease of NADH (at 340 nm) as a function of time. PK converts ADP to ATP (adenosine triphosphate) by converting PEP (phosphoenolpyruvate) to pyruvate. Pyruvate is then converted to lactate by LDH by converting NADH (nicotinamide adenine dinucleotide) to NAD (oxidized nicotinamide adenine dinucleotide). […] Prior to testing small molecule agents, the bovine myofibrils were assessed for their calcium responsiveness and the calcium concentration that achieves either a 50% (pCa50 or pCa=˜6) or <5% (pCa=10) activation of the myofibril system was chosen as the final condition for assessing the activation activity of the small molecule agents. […]\nA dilution series of compound was created in DMSO such that the final desired concentration of compound would be achieved in a volume of […] with a fixed DMSO concentration of 3.3% (v/v). […] The reaction progress was followed in a PerkinElmer Envision plate reader at ambient temperature using clear bottom plates. The plate reader was configured to read absorbance at 340 nm in kinetics mode for 15 minutes. […]"}, "[3]": {"assay": "Polymorph relative stability, interconversion slurring experiments", "type": "physicochemical"}},
  "data": [
    {"smiles": "Cn1cc(S(=O)(=O)[C@@](C)(F)C2CCN(C(=O)Nc3ccon3)CC2)c(C(F)F)n1", "note": "[Form A, (R)-4-(1-((3-(difluoromethyl)-1-methyl-1H-pyrazol-4-yl)sulfonyl)-1-fluoroethyl)-N-(isoxazol-3-yl)piperidine-1-carboxamide]", "values": [
      {"measurement": "Activity at 3.0 uM (fractional shortening activation over basal)", "setting": "[1]; 3.0 uM compound", "value": "+ (fractional shorting activation <20% over basal)"},
      {"measurement": "Activity at 10 uM (fractional shortening activation over basal)", "setting": "[1]; 10 uM compound", "value": "++ (fractional shorting activation values from 20% to 50% over basal)"},
      {"measurement": "Hygroscopic character (DVS isotherm)", "setting": "[2]", "value": "non-hygroscopic"},
      {"measurement": "Myosin Activation (AC20)", "setting": "bovine cardiac myosin", "value": "+++ (myosin activation value AC20 < 2 μM)"}
    ]},
    {"smiles": "Cn1cc(S(=O)(=O)[C@@](C)(F)C2CCN(C(=O)Nc3ccon3)CC2)c(C(F)F)n1", "note": "[Form B, (R)-4-(1-((3-(difluoromethyl)-1-methyl-1H-pyrazol-4-yl)sulfonyl)-1-fluoroethyl)-N-(isoxazol-3-yl)piperidine-1-carboxamide]", "values": [
      {"measurement": "Hygroscopic character (DVS isotherm)", "setting": "[2]", "value": "nonhygroscopic"},
      {"measurement": "Relative stability of polymorphs", "setting": "[3]; 1:1 (w/w) forms A+εD and B slurried 18 hours in acetonitrile and water mixture, range of RT to 70° C.", "value": "more stable compared to Form A"},
      {"measurement": "Polymorph stability ranking", "setting": "[3]; compared to Form A, Form C, and Form D", "value": "most stable polymorph"}
    ]}
  ]
}
